Source: patent publication US4266077A, “Naphthalenetetrayltetrakis(sulfonylimino)-aryl multicarboxylic acids and salts thereof” (priority 1979, dated 1981)
Read-outs that look alike come from different tables or passages of the source.

How the values were obtained:
[1] = molecular target: T1, activated human C1 (Homo sapiens, UniProt P09871); test: Test Code 026 (C1 inhibitor); assay type: biochemical; conditions: serial dilution assay, twofold dilutions; higher well number indicates higher activity
T1 construct: C1r and C1s cleaved to two-chain proteases
Description: (§1) An active inhibitor protects C2 from C1 and C4; (ii) Test Code 035 (C3-C9 inhibitor): This test determines the ability of the late components of human complement (C3-C9) to lyse EAC 142 in the presence of appropriate dilutions of the test compound. An active inhibitor protects EAC 142 from lysis by human C3-C9; (iii) Test Code 036 (C-Shunt inhibitor): In this test human erythrocytes rendered fragile are lysed in autologous serum via the shunt pathway activated by cobra venom factor in the presence of appropriate dilutions of the test compound. Inhibition of the shunt pathway results in failure of lysis; (iv) Forssman Vasculitis Test: Here, the well known complement dependent lesion, Forssman vasculitis, is produced in guinea pigs by intradermal injection of rabbit anti-Forssman antiserum. […] Percent inhibition is calculated by comparison with simultaneous controls. […]

[2] = test system: late components of human complement (C3-C9); test: Test Code 035 (C3-C9 inhibitor), lysis of EAC 142; assay type: biochemical; conditions: serial dilution assay, twofold dilutions; higher well number indicates higher activity
Description: as §1

[3] = test system: shunt pathway activated by cobra venom factor; test: Test Code 036 (C-Shunt inhibitor), lysis of human erythrocytes in autologous serum; assay type: biochemical; conditions: serial dilution assay, twofold dilutions; higher well number indicates higher activity
Description: as §1

[4] = test system: complement activity of sera; test: Guinea Pig Intraperitoneal Test (GPIP); assay type: in vivo; conditions: Cavia porcellus, ip, 200 mg./kg. i.p.
Description: An active inhibitor protects C2 from C1 and C4; (ii) Test Code 035 (C3-C9 inhibitor): This test determines the ability of the late components of human complement (C3-C9) to lyse EAC 142 in the presence of appropriate dilutions of the test compound. An active inhibitor protects EAC 142 from lysis by human C3-C9; (iii) Test Code 036 (C-Shunt inhibitor): In this test human erythrocytes rendered fragile are lysed in autologous serum via the shunt pathway activated by cobra venom factor in the presence of appropriate dilutions of the test compound. Inhibition of the shunt pathway results in failure of lysis; (iv) Forssman Vasculitis Test: Here, the well known complement dependent lesion, Forssman vasculitis, is produced in guinea pigs by intradermal injection of rabbit anti-Forssman antiserum. The lesion is measured in terms of diameter, edema and hemorrhage and the extent to which a combined index of these is inhibited by prior intraperitoneal injection of the test compound at 200 mg./kg. is then reported, unless otherwise stated; (v) Forssman Shock Test: Lethal shock is produced in guinea pigs by an i.v. injection of anti-Forssman antiserum and the harmonic mean death time of treated guinea pigs is compared with that of simultaneous controls; (vi) Complement Level Reduction Test: In this test, the above dosed guinea pigs, or others, are bled for serum and the complement level is determined in undiluted serum by the capillary tube method of U.S. Pat. No. 3,876,376 and compared to undosed control guinea pigs; (vii) Cap 50 Test: Here, appropriate amounts of the test compound are added to a pool of guinea pig serum in vitro, after which the undiluted serum capillary tube assay referred to above is run. The concentration of compound inhibiting 50% is reported; (viii) Guinea Pig Intraperitoneal Test (GPIP): Guinea pigs weighing about 300 g. are dosed intraperitoneally (i.p.) with 200 mg./kg. of the test compound dissolved in saline and adjusted to pH 7-8. Approximately 0.4 ml. blood samples, taken by orbital sinus puncture 30 minutes and one hour after injections, are collected directly into centrifuge tubes; 5 ml. blood samples, taken by decapitation 2 hours after injection are collected directly into diSPo® beakers. The samples were allowed to clot, centrifuged, and the resultant sera are assayed for complement activity using the capillary complement assay. Percent inhibition is calculated by comparison with simultaneous controls. The results appear in Table I together with results of Test Code 026, 035, 036, Cap 50 and % Inhibition.

[5] = 0.5 h, serum 30 minutes after injection, read-out: In Vivo Activity (Guinea Pig) % Inhibition Intraperitoneal, 30 minutes
[6] = 1 h, serum 60 minutes after injection, read-out: In Vivo Activity (Guinea Pig) % Inhibition Intraperitoneal, 60 minutes
[7] = 2 h, serum 120 minutes after injection, read-out: In Vivo Activity (Guinea Pig) % Inhibition Intraperitoneal, 120 minutes

T1 sequence (P09871 16-688): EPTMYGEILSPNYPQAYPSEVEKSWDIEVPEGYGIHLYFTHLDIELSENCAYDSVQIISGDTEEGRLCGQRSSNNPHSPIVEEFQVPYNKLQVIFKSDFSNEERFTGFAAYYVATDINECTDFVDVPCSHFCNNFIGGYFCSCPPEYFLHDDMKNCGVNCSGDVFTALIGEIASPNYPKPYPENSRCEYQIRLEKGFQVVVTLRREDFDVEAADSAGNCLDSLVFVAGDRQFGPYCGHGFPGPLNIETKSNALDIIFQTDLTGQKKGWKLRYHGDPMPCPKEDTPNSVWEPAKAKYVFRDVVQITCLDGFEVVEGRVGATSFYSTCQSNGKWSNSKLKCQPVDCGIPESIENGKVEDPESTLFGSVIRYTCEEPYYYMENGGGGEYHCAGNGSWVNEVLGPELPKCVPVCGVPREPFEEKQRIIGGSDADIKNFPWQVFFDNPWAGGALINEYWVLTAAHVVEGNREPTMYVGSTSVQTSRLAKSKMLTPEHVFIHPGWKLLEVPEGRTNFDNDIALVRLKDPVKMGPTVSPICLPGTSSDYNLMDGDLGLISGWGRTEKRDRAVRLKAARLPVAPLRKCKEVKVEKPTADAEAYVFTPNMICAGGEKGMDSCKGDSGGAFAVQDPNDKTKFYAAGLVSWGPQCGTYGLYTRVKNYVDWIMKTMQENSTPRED
T1 sequence (P00736 18-705 partner): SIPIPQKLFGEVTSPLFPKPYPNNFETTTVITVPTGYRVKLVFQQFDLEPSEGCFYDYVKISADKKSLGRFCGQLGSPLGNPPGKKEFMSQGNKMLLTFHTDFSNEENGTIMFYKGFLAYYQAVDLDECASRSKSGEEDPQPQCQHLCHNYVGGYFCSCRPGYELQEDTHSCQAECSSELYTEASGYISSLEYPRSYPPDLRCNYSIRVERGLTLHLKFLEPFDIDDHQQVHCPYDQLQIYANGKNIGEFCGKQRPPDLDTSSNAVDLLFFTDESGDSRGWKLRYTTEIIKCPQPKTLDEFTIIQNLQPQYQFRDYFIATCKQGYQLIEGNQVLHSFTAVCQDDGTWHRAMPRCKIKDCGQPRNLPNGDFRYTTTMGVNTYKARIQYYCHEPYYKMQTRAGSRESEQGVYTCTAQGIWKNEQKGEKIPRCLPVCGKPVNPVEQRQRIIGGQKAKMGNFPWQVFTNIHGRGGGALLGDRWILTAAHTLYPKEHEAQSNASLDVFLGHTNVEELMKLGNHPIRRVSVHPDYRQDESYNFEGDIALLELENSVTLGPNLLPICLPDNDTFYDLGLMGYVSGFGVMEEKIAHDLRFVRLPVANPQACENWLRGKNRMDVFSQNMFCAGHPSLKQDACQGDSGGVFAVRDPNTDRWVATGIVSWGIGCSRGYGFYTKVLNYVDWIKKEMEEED
T1 sequence (P02745 23-245 partner): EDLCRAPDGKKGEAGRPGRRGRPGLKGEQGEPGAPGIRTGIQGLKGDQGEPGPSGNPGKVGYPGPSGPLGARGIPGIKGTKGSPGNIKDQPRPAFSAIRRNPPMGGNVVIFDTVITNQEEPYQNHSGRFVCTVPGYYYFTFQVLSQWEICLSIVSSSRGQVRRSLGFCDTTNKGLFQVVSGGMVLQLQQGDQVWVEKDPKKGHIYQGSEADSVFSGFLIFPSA
T1 sequence (P02746 28-253 partner): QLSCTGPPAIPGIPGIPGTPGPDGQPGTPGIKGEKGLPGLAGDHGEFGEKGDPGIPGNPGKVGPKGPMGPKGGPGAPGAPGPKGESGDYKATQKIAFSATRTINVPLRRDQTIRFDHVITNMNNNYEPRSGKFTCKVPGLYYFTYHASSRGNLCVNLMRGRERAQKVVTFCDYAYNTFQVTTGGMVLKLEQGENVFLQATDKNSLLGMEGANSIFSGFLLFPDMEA
T1 sequence (P02747 29-245 partner): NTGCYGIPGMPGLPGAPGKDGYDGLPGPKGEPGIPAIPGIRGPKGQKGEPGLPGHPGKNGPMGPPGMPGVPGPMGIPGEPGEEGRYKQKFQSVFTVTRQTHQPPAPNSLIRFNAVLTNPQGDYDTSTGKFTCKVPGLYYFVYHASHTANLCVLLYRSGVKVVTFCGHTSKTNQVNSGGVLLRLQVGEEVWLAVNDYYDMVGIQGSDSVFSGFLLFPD

In the case of O=C([O-])c1cc(NS(=O)(=O)c2cc(S(=O)(=O)Nc3cc(C(=O)[O-])c(C(=O)[O-])c(C(=O)[O-])c3)c3cc(S(=O)(=O)Nc4cc(C(=O)[O-])c(C(=O)[O-])c(C(=O)[O-])c4)cc(S(=O)(=O)Nc4cc(C(=O)[O-])c(C(=O)[O-])c(C(=O)[O-])c4)c3c2)cc(C(=O)[O-])c1C(=O)[O-].[Na+].[Na+].[Na+].[Na+].[Na+].[Na+].[Na+].[Na+].[Na+].[Na+].[Na+].[Na+] [5,5',5",5'"-[1,3,5,7-Naphthalenetetrayltetrakis[sulfonylimino)]-tetra-1,2,3-benzenetricarboxylic acid, dodecasodium salt], the “Cl 026 Wells” value [1] is reported as “+2 Wells”, the “C-Late 035 Wells” value [2] is reported as “+4 Wells” and the “Shunt Inhibition 036 Wells” value [3] is reported as “+6 Wells”. The inhibition at 200 mg/kg [4, 5] was -80%, the inhibition at 200 mg/kg [4, 6] was -77% and the inhibition at 200 mg/kg [4, 7] was -85%.

For O=C([O-])c1cc(NS(=O)(=O)c2cc(S(=O)(=O)Nc3cc(C(=O)[O-])cc(C(=O)[O-])c3)c3cc(S(=O)(=O)Nc4cc(C(=O)[O-])cc(C(=O)[O-])c4)cc(S(=O)(=O)Nc4cc(C(=O)[O-])cc(C(=O)[O-])c4)c3c2)cc(C(=O)[O-])c1.[Na+].[Na+].[Na+].[Na+].[Na+].[Na+].[Na+].[Na+] [5,5',5",5'"-[1,3,5,7-Naphthalenetetrayltetrakis(sulfonylimino)]-tetra-1,3-benzenedicarboxylic acid, octasodium salt], the “Cl 026 Wells” value [1] was “+7 Wells”, the “C-Late 035 Wells” value [2] was “+2 Wells” and the “Shunt Inhibition 036 Wells” value [3] was “+6 Wells”. It also gave an inhibition at 200 mg/kg [4, 5] of -66%, an inhibition at 200 mg/kg [4, 6] of -71% and an inhibition at 200 mg/kg [4, 7] of -76%.
